Measurements published in article PMC5187391, “Structural mechanism for the arginine sensing and regulation of CASTOR1 in the mTORC1 signaling pathway” (Cell Discovery, 2016).
Where a chain is given by its changes, count along the chain named.

Legend:
CASTOR1 [1] = target: T1, CASTOR1 (Homo sapiens, UniProt Q8WTX7); assay: ITC; type: binding
T1 construct: full-length human CASTOR1, N-terminal 6×His-tag (homodimer)
T1 sequence (Q8WTX7 1-329): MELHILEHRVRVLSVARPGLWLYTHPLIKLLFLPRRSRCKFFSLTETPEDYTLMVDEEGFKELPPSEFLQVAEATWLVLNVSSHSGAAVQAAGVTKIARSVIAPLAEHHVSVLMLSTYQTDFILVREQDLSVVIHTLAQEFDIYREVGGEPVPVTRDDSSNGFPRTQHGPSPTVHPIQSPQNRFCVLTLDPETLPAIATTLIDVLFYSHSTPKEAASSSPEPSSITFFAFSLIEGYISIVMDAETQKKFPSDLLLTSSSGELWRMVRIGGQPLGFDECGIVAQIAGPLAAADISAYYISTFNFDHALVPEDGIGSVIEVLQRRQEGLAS

CASTOR1 [2] = target: T2, CASTOR1 (Homo sapiens, UniProt Q8WTX7, S111A); assay: ITC; type: binding
T2 construct: full-length human CASTOR1, N-terminal 6×His-tag
T2 sequence (Q8WTX7 1-329 S111A): T1 sequence (Q8WTX7 1-329) with S111A

[3] = target: the molecule itself; assay: SEC-MALS; 25 °C; about 400 μg protein injected per run; 15 mM Tris-HCl, pH 8.0, 150 mM NaCl, 2 mM DTT; WTC-015S5 column
[4] = target: T3, Full-length human Mios with an N-terminal GST tag (human, UniProt Q9NXC5 1-875); assay: pull-down; Ni2+-NTA column pull-down: His-CASTOR1 pre-immobilised on the Ni2+-NTA column, GST-Mios (or another purified GATOR2 subunit) added at 4 °C; wash 25 mM Tris, pH 8.0, 300 mM NaCl, 20 mM imidazole; elution with 500 mM imidazole; SDS-PAGE and Coomassie Blue staining; conditions: both partners purified
T3 construct: Mios, human, full length, in pGEX4T-1; the methods describe only GST-Mios for the Ni2+-NTA pull-down; also called GST-Mios; purified Mios protein; not shown: GST, N-terminal, kept
T3 sequence (looked up): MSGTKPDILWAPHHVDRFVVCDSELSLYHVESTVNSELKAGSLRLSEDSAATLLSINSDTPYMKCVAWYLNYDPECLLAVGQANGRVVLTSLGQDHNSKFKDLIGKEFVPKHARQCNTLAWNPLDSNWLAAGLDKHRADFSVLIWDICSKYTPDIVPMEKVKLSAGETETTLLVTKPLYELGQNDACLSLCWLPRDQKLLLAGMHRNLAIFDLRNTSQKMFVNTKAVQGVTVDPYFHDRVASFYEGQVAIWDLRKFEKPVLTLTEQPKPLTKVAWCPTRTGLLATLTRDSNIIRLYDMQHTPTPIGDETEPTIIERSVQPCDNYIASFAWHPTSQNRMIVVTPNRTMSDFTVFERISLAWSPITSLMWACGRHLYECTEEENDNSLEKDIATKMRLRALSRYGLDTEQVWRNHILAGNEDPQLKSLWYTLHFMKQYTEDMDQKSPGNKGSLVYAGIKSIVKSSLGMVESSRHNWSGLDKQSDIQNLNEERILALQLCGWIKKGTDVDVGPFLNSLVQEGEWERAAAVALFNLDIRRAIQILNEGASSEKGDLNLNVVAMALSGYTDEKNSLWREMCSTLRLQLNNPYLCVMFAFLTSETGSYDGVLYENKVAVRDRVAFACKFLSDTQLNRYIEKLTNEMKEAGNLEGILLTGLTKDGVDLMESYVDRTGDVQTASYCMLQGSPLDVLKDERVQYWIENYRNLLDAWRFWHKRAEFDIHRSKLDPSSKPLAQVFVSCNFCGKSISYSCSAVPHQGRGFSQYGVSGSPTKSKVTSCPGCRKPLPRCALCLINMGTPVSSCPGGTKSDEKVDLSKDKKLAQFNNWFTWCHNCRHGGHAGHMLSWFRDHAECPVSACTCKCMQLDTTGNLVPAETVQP

N=C(N)NCCC[C@H](N)C(=O)O [arginine]
Kd (CASTOR1 [1]): 2.23 µM | Kd (CASTOR1 [2]): 9.68 µM

B1: Full-length human CASTOR1, wild type, N-terminal 6xHis-tag (natural protein, UniProt Q8WTX7 1-329, looked up)
chain: T1 sequence (Q8WTX7 1-329)
notes: CASTOR1, human, full length (residues 1-329 by the domain limits printed in the results); cDNA chemically synthesized, in pET28a; Dimer in the crystal and by SEC-MALS; also called WT CASTOR1; His-CASTOR1; source: E. coli BL21(DE3), purified (Ni2+-NTA, Superdex 200 gel filtration); not shown: His6, N-terminal, kept
stoichiometry N [3]: 2 | binding result [4]: binds
